Measurements: PubChem BioAssay (NCI)
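Interpolation was linear, between the two tested concentrations surrounding the appropriate level; five concentrations were tested over 48 hours in 96-well plates. TGI is the concentration that stops growth completely.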

Experiments:
Test in all cases: inhibition of tumour cell growth, NCI panel, 48 h
HCT-15 colon = system: HCT-15 colon
COLO 205 colon = system: COLO 205 colon
OVCAR-5 ovarian = system: OVCAR-5 ovarian
786-0 renal = system: 786-0 renal
UO-31 renal = system: UO-31 renal
OVCAR-3 ovarian = system: OVCAR-3 ovarian
SN12C renal = system: SN12C renal
A498 renal = system: A498 renal
HCT-116 colon = system: HCT-116 colon
A549 NSCLC = system: A549 NSCLC
DU-145 prostate = system: DU-145 prostate
PC-3 prostate = system: PC-3 prostate
CCRF-CEM leukemia = system: CCRF-CEM leukemia
U251 CNS = system: U251 CNS
SF-295 CNS = system: SF-295 CNS
HL-60(TB) leukemia = system: HL-60(TB) leukemia
MDA-N = system: MDA-N
SK-MEL-5 melanoma = system: SK-MEL-5 melanoma
SW-620 colon = system: SW-620 colon
ACHN renal = system: ACHN renal
MOLT-4 leukemia = system: MOLT-4 leukemia
SK-OV-3 ovarian = system: SK-OV-3 ovarian
MDA-MB-231 breast = system: MDA-MB-231 breast
RXF 393 renal = system: RXF 393 renal
OVCAR-8 ovarian = system: OVCAR-8 ovarian
HS 578T breast = system: HS 578T breast
HCC-2998 colon = system: HCC-2998 colon
CAKI-1 renal = system: CAKI-1 renal
BT-549 breast = system: BT-549 breast
T-47D breast = system: T-47D breast
SR leukemia = system: SR leukemia
LOX IMVI melanoma = system: LOX IMVI melanoma
UACC-257 melanoma = system: UACC-257 melanoma
NCI-H226 lung = system: NCI-H226 lung
SK-MEL-2 melanoma = system: SK-MEL-2 melanoma
SF-539 CNS = system: SF-539 CNS
SF-268 CNS = system: SF-268 CNS
SNB-19 CNS = system: SNB-19 CNS
RPMI-8226 leukemia = system: RPMI-8226 leukemia
HOP-92 NSCLC = system: HOP-92 NSCLC
MDA-MB-435 = system: MDA-MB-435
M14 melanoma = system: M14 melanoma
HT29 colon = system: HT29 colon
UACC-62 melanoma = system: UACC-62 melanoma
SK-MEL-28 melanoma = system: SK-MEL-28 melanoma
SNB-75 CNS = system: SNB-75 CNS
K-562 leukemia = system: K-562 leukemia
NCI/ADR-RES ovarian = system: NCI/ADR-RES ovarian
MCF7 breast = system: MCF7 breast
OVCAR-4 ovarian = system: OVCAR-4 ovarian
KM12 colon = system: KM12 colon
NCI-H23 lung = system: NCI-H23 lung
NCI-H460 lung = system: NCI-H460 lung
MALME-3M melanoma = system: MALME-3M melanoma
HOP-62 NSCLC = system: HOP-62 NSCLC
EKVX NSCLC = system: EKVX NSCLC
TK-10 renal = system: TK-10 renal
NCI-H522 lung = system: NCI-H522 lung
IGROV1 ovarian = system: IGROV1 ovarian

COc1ccccc1NC(=O)C(=O)Cc1cnc2ccccc2n1
TGI (HCT-15 colon): > 100 µM
TGI (COLO 205 colon): > 100 µM
TGI (OVCAR-5 ovarian): > 100 µM
TGI (786-0 renal): > 100 µM
TGI (UO-31 renal): > 100 µM
TGI (OVCAR-3 ovarian): > 100 µM
TGI (SN12C renal): > 100 µM
TGI (A498 renal): > 100 µM
TGI (HCT-116 colon): > 100 µM
TGI (A549 NSCLC): > 100 µM
TGI (DU-145 prostate): > 100 µM
TGI (PC-3 prostate): > 100 µM
TGI (CCRF-CEM leukemia): > 100 µM
TGI (U251 CNS): > 100 µM
TGI (SF-295 CNS): > 100 µM
TGI (HL-60(TB) leukemia): > 100 µM
TGI (MDA-N): > 100 µM
TGI (SK-MEL-5 melanoma): > 100 µM
TGI (SW-620 colon): > 100 µM
TGI (ACHN renal): > 100 µM
TGI (MOLT-4 leukemia): > 100 µM
TGI (SK-OV-3 ovarian): > 100 µM
TGI (MDA-MB-231 breast): > 100 µM
TGI (RXF 393 renal): > 100 µM
TGI (OVCAR-8 ovarian): > 100 µM
TGI (HS 578T breast): > 100 µM
TGI (HCC-2998 colon): > 100 µM
TGI (CAKI-1 renal): > 100 µM
TGI (BT-549 breast): > 100 µM
TGI (T-47D breast): > 100 µM
TGI (SR leukemia): > 100 µM
TGI (LOX IMVI melanoma): > 100 µM
TGI (UACC-257 melanoma): > 100 µM
TGI (NCI-H226 lung): > 100 µM
TGI (SK-MEL-2 melanoma): > 100 µM
TGI (SF-539 CNS): > 100 µM
TGI (SF-268 CNS): > 100 µM
TGI (SNB-19 CNS): > 100 µM
TGI (RPMI-8226 leukemia): > 100 µM
TGI (HOP-92 NSCLC): > 100 µM
TGI (MDA-MB-435): > 100 µM
TGI (M14 melanoma): > 100 µM
TGI (HT29 colon): > 100 µM
TGI (UACC-62 melanoma): > 100 µM
TGI (SK-MEL-28 melanoma): > 100 µM
TGI (SNB-75 CNS): > 100 µM
TGI (K-562 leukemia): > 100 µM
TGI (NCI/ADR-RES ovarian): > 100 µM
TGI (MCF7 breast): > 100 µM
TGI (OVCAR-4 ovarian): > 100 µM
TGI (KM12 colon): > 100 µM
TGI (NCI-H23 lung): > 100 µM
TGI (NCI-H460 lung): > 100 µM

Cc1cnc2c(c1)C(=O)N(c1ccc([N+](=O)[O-])cc1)S2(=O)=O
TGI (HCT-15 colon): > 100 µM
TGI (COLO 205 colon): > 100 µM
TGI (MALME-3M melanoma): 63.4 µM
TGI (OVCAR-5 ovarian): > 100 µM
TGI (786-0 renal): > 100 µM
TGI (UO-31 renal): > 100 µM
TGI (OVCAR-3 ovarian): > 100 µM
TGI (SN12C renal): > 100 µM
TGI (A498 renal): > 100 µM
TGI (HCT-116 colon): > 100 µM
TGI (A549 NSCLC): > 100 µM
TGI (DU-145 prostate): > 100 µM
TGI (PC-3 prostate): > 100 µM
TGI (CCRF-CEM leukemia): > 100 µM
TGI (HOP-62 NSCLC): > 100 µM
TGI (U251 CNS): > 100 µM
TGI (SF-295 CNS): > 100 µM
TGI (HL-60(TB) leukemia): > 100 µM
TGI (MDA-N): > 100 µM
TGI (SK-MEL-5 melanoma): > 100 µM
TGI (SW-620 colon): > 100 µM
TGI (EKVX NSCLC): > 100 µM
TGI (ACHN renal): > 100 µM
TGI (TK-10 renal): > 100 µM
TGI (MOLT-4 leukemia): > 100 µM
TGI (SK-OV-3 ovarian): > 100 µM
TGI (MDA-MB-231 breast): > 100 µM
TGI (NCI-H522 lung): > 100 µM
TGI (OVCAR-8 ovarian): > 100 µM
TGI (HS 578T breast): > 100 µM
TGI (HCC-2998 colon): > 100 µM
TGI (CAKI-1 renal): > 100 µM
TGI (BT-549 breast): > 100 µM
TGI (T-47D breast): > 100 µM
TGI (SR leukemia): 99.2 µM
TGI (LOX IMVI melanoma): > 100 µM
TGI (UACC-257 melanoma): > 100 µM
TGI (NCI-H226 lung): 78.5 µM
TGI (SK-MEL-2 melanoma): > 100 µM
TGI (SF-539 CNS): > 100 µM
TGI (SF-268 CNS): > 100 µM
TGI (SNB-19 CNS): > 100 µM
TGI (RPMI-8226 leukemia): > 100 µM
TGI (HOP-92 NSCLC): > 100 µM
TGI (IGROV1 ovarian): > 100 µM
TGI (MDA-MB-435): > 100 µM
TGI (M14 melanoma): > 100 µM
TGI (HT29 colon): > 100 µM
TGI (UACC-62 melanoma): > 100 µM
TGI (SK-MEL-28 melanoma): > 100 µM
TGI (SNB-75 CNS): > 100 µM
TGI (NCI/ADR-RES ovarian): > 100 µM
TGI (MCF7 breast): > 100 µM
TGI (OVCAR-4 ovarian): > 100 µM
TGI (KM12 colon): > 100 µM
TGI (NCI-H23 lung): > 100 µM
TGI (NCI-H460 lung): > 100 µM
